For experiment [1], the target named is T1, GST-tagged macro-domain protein (Archaeoglobus fulgidus, UniProt O28751).
T1 construct: For the N-terminal GST fusion of AF1521 the gene for residues 1-192 was synthesized; made in house; host or cells: E. coli BL21 Star (DE3) / BL21 Tuner (DE3)
T1 sequence (O28751 1-192): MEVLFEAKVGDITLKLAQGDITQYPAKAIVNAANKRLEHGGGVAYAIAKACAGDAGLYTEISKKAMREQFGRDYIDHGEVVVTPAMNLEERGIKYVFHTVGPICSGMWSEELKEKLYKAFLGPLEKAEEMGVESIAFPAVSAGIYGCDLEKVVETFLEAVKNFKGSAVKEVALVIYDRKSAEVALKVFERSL
Nature of the experiment: Titration curve: competition with biotinylated ADP-ribose for binding to the macro-domain protein (luminescence signal). The conditions noted are these: rising concentration of competitor against biotinylated ADP-ribose. On the procedure:
(§1) After that 2 µl of an acetylated peptide (final concentration of 10 µM) mixed with NAD^+ (final concentration of 500 µM, dissolved in assay buffer 1) and 2 µl of SIRT enzyme (final concentration of 20 nM for 1x SIRT (100% CTL) and 200 nM for 10x SIRT (1000% CTL), dissolved in assay buffer 1) are added by a Multidrop combi. After an incubation time of 20 min at room temperature 4 µl biotinylated ADP-ribose (final concentration 50 nM, dissolved in assay buffer 2) and 4 µl GST tagged macro-domain protein (final concentration 50 nM, dissolved in assay buffer 2) are added by a Multidrop combi. After another incubation time of 60 min at room temperature 4 µl of acceptor beads and 4 µl of donor beads (final concentration of each bead-type 20 µg/ml, both dissolved in assay buffer 2) are added by a Multidrop combi. The plates are then sealed and incubated in the dark at room temperature for at least 30 min. After the incubation period, the plates are measured using the Envision reader from Perkin Elmer.
Assay was performed as described in example 4 (general SOP) besides the fact that instead of ADP-ribose 2'/3'-O-acetyl-ADP-ribose was used for the titration curve.
Assay was performed as described in example 4 (general SOP) employing non-biotinylated ADP-ribose for the titration curve.

The target of experiment [2] is T2, SIRT1 (Homo sapiens, UniProt Q96EB6).
T2 construct: made in house; host or cells: E. coli BL21 Star (DE3)
T2 sequence (Q96EB6 183-664): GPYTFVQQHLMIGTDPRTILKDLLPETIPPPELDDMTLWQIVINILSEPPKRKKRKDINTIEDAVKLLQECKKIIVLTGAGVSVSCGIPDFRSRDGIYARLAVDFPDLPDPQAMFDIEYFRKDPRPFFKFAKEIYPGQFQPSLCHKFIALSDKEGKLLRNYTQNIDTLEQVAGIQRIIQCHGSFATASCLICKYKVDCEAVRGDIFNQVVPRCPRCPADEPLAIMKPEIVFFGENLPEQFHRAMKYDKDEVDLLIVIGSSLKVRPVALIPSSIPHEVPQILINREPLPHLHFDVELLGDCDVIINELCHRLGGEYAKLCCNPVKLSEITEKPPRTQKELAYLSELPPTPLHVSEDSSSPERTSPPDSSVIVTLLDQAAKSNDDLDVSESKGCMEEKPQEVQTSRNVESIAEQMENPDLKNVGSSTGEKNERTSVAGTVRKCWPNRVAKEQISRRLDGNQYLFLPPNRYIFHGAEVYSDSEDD
Nature of the experiment: Macro-domain protein assay for SIRT modulators (detection of generated 2'/3'-O-acetyl-ADP-ribose, donor/acceptor beads). It is filed as biochemical. As to conditions: 10x SIRT (200 nM), 10 µM compound. On the procedure:
200 nl of test compound in 100% DMSO (final concentration of compound 10 µM; DMSO 1%) is given in the 384-well plates by a Cybio Cybiwell capillary head pipettor.
as §1, with “Elmer. […]” for “Elmer.”

Experiment [3] has as its target T3, GST-tagged AF1521 (Archaeoglobus fulgidus, UniProt O28751).
T3 construct: For the N-terminal GST fusion of AF1521 the gene for residues 1-192 was synthesized; made in house; host or cells: E. coli BL21 Star (DE3) / BL21 Tuner (DE3)
T3 sequence (O28751 1-192): T1 sequence (O28751 1-192)
The experiment in a line: Nucleotide ligand binding assay by isothermal calorimetry (ITC). The conditions noted are these: for ΔG: change in Gibbs free energy of binding; for ΔS: change in entropy. On the procedure:
Nucleotide binding assays were performed using isothermal calorimetry (ITC) on a ITC200 (Microcal) at 25°C. Protein was buffer exchanged using PD10 columns (GE Healthcare) into 50 mM Tris pH 7.5; 150 mM NaCl and 1 mM TCEP. Nucleotides were resuspended in ITC buffer and their concentration were determined through absorbance at 260 nm. Macro-domain proteins were used at 50 µM concentration, whereas the nucleotides were used at 500 µM. ITC measurements were performed by 20 successive injections of 2 µl of the nucleotides into 280 µl of AF1521 with a duration of 4 seconds and 150 seconds of spacing. Data analysis was done using the software ORIGIN 7.0 (Microcal).

The mark [4] stands for this setting: ITC at 25°C, protein 50 µM, nucleotide 500 µM, read-out: KD.

Where two headings read alike, the source gives them in different places.

`Nc1ncnc2c1ncn2[C@@H]1O[C@H](COP(=O)(O)OP(=O)(O)OC[C@H]2OC(O)[C@H](O)[C@@H]2O)[C@@H](O)[C@H]1O` (some centres unmarked) [ADP-ribose]: the luminescence signal result in experiment [1] was “the luminescence signal decreases”.
For `O=C(Nc1nccs1)c1cccc2ccc(-c3cccc(OC4CCNCC4)c3)nc12` [EX00001253], the “amount of generated 2'/3'-O-acetyl-ADP-ribose” value in experiment [2] was “reduces the amount of generated 2'/3'-O-acetyl-ADP-ribose”.
Consider `Cc1ccc(C(=O)Nc2ccc(S(=O)(=O)O)c3cc(S(=O)(=O)O)cc(S(=O)(=O)O)c23)cc1NC(=O)c1cccc(NC(=O)Nc2cccc(C(=O)Nc3cc(C(=O)Nc4ccc(S(=O)(=O)O)c5cc(S(=O)(=O)O)cc(S(=O)(=O)O)c45)ccc3C)c2)c1` [Suramin], for which, in experiment [2], the “amount of generated 2'/3'-O-acetyl-ADP-ribose” value was “reduces the amount of generated 2'/3'-O-acetyl-ADP-ribose”.
A word on the Kd: it is the constant that tells how readily two partners part at equilibrium. Take `CC(=O)O[C@@H]1[C@@H](COP(=O)(O)OP(=O)(O)OC[C@H]2O[C@@H](n3cnc4c(N)ncnc43)[C@H](O)[C@@H]2O)OC(O)[C@@H]1O` (some centres unmarked) [acetyl ADP-ribose, 2'/3'-O-acetyl-ADP-ribose]: in experiment [3] (ITC at 25°C), the “-TΔS” value is -9.502 kJ/mol, the ΔG is -30.71 kJ/mol and the ΔS is listed as 7,63 cal/mol/K. For the same compound, the Kd in experiment [3] (setting [4]) worked out at 4.14 µM. Further, in experiment [3] (change in enthalpy, ITC at 25°C), the ΔH was -21.21 kJ/mol. In experiment [1], the luminescence signal entry is on record as “the luminescence signal decreases”.
As for `Nc1ncnc2c1ncn2[C@@H]1O[C@H](COP(=O)(O)OP(=O)(O)OC[C@@H](O)[C@@H](O)[C@@H](O)C=NOCC(=O)NCCOCCOCCOCCOCCNC(=O)CCCC[C@@H]2SC[C@@H]3NC(=O)N[C@@H]32)[C@@H](O)[C@H]1O` [biotinylated ADP-ribose], in experiment [3] (ITC at 25°C), the “-TΔS” value came to 1.6 kJ/mol, the ΔG is -31.97 kJ/mol and the ΔS is recorded as -1,3 cal/mol/K. In addition, the Kd in experiment [3] (setting [4]) worked out at 2.55 µM. The Kd in experiment [3] (ITC, read-out: KD value) was determined as 2.5 µM.

(Values after patent EP3076175A1, “DETECTION AND QUANTIFICATION OF O-ACETYL-ADP-RIBOSE AS A READOUT SYSTEM FOR MEASURING THE ACTIVITY OF E.G. SIRTUINS” (Boehringer Ingelheim International GmbH, priority 2015, dated 2016).)
